Like-named read-outs stand apart in the source and are kept apart here.
Key:
[1] = test system: KB human epidermoid carcinoma cells; assay: Tumor cell growth inhibition in vitro, MTT assay; type: cell-based
Protocol: (§1) Method: Cells (˜2×10^3) were seeded in 96-well plates in 200 μL of RPMI1640 cell culture medium supplemented with 10% FBS. After 24 hours at 37° C. and 5% CO2, the medium was replaced in quintuplicate wells with medium containing Icotinib hydrochloride Crystalline Form I dissolved in DMSO and then serial diluted, yielding final Icotinib concentrations of 0.05-300 μM. DMSO concentrations were less than 0.1% at the highest drug concentrations. Cells were incubated in medium alone with 0.1% DMSO as a negative control. Following a 96 hr incubation, the MTT [3-(4,5-dimethylthiazol-2-yl)-2,5-diphenyltetrazolium] colorimetric assay was performed using a microplate reader (reference wavelength 450 nm, detection wavelength 570 nm). The logarithm of drug concentration on the inhibition rate was linear, and the half inhibitory concentration of the drug (IC50) was obtained.

[2] = test system: A431 human epidermoid carcinoma; assay: Tumor cell growth inhibition in vitro, MTT assay; type: cell-based; details: A-431, A431, 96 hr
Protocol: as §1

[3] = test system: HCT8 human colon cancer cells; assay: Tumor cell growth inhibition in vitro, MTT assay; type: cell-based
Protocol: as §1

[4] = test system: H460 human lung adenocarcinoma cells; assay: Tumor cell growth inhibition in vitro, MTT assay; type: cell-based
Protocol: as §1

[5] = test system: BGC-823 human gastric cancer cells; assay: Tumor cell growth inhibition in vitro, MTT assay; type: cell-based
Protocol: as §1

[6] = test system: BEL-7402 human hepatoma cells; assay: Tumor cell growth inhibition in vitro, MTT assay; type: cell-based
Protocol: as §1

[7] = test system: A549 human non-small cell lung cancer cells; assay: Tumor cell growth inhibition in vitro, MTT assay; type: cell-based
Protocol: as §1

P450 enzymes = assay: Induction of P450 enzymes in rat liver; type: in vivo
Protocol: In addition, non-clinical pharmacokinetic studies of Icotinib hydrochloride Crystalline Form I in Beagle dogs and rats were conducted.

[8] = test system: H460 human lung adenocarcinoma xenograft; type: in vivo
[9] = molecular target: Arg (abl-related gene) tyrosine kinase (Homo sapiens, UniProt P42684); assay: Selectivity: inhibition of Arg tyrosine kinase, Crk substrate phosphorylation, same methodology; type: biochemical; details: 62.5 nM
Protocol: Method: This method is based on the ability of protein kinases to catalyze substrate phosphorylation; radioisotope ^32P-labeled ATP (^32P-γ-ATP) is utilized in the reaction system to radioactively tag the protein substrate with ^32P. After separation and isolation of the protein substrate by polyacrylamide gel electrophoresis, the intensity of the radioactive ^32P-labeled protein substrate is recorded.
The kinase reaction buffer included 1 μM of non-isotope labeled-ATP. […] The mixture was incubated on ice for 10 min, and 1 μCi of ^32P-γ-ATP was then added. After incubation at 30° C. for 20 min, SDS (sodium dodecyl sulfate) sample buffer was added, and the mixture was boiled in a 100° C. water bath for 4 min. The samples were separated by 10% SDS-PAGE. After vacuum drying of the polyacrylamide gel, the intensity of radioactively labeled proteins were measured and recorded using a Phosphorimager (Molecular Dynamics Inc.). The signal was quantitatively analyzed utilizing ImageQuant software. The degree of Crk substrate phosphorylation was used to estimate the activity of the kinase. Inhibition (%)=(1−kinase activity of the test group/kinase activity of control group)×100%

[10] = test system: advanced non-small cell lung cancer (NSCLC); assay: Phase IIa clinical trial in advanced NSCLC patients; type: in vivo, human
From the text: Definitions of terms used: PR: partial remission, CR: complete remission, SD: stable disease, PD: progression of disease, ORR: objective response rate, DCR: disease control rate.

[11] = 225 mg/day (75 mg, 3 times a day)
[12] = 300 mg/day (100 mg, 3 times a day)
[13] = 300 mg/day (150 mg, Twice a day)
[14] = 375 mg/day (125 mg, 3 times a day)
[15] = 400 mg/day (200 mg, Twice a day)
[16] = 450 mg/day (150 mg, 3 times a day)
[17] = 600 mg/day (200 mg, 3 times a day)

Sequence of Arg (abl-related gene) tyrosine kinase (P42684 whole entry): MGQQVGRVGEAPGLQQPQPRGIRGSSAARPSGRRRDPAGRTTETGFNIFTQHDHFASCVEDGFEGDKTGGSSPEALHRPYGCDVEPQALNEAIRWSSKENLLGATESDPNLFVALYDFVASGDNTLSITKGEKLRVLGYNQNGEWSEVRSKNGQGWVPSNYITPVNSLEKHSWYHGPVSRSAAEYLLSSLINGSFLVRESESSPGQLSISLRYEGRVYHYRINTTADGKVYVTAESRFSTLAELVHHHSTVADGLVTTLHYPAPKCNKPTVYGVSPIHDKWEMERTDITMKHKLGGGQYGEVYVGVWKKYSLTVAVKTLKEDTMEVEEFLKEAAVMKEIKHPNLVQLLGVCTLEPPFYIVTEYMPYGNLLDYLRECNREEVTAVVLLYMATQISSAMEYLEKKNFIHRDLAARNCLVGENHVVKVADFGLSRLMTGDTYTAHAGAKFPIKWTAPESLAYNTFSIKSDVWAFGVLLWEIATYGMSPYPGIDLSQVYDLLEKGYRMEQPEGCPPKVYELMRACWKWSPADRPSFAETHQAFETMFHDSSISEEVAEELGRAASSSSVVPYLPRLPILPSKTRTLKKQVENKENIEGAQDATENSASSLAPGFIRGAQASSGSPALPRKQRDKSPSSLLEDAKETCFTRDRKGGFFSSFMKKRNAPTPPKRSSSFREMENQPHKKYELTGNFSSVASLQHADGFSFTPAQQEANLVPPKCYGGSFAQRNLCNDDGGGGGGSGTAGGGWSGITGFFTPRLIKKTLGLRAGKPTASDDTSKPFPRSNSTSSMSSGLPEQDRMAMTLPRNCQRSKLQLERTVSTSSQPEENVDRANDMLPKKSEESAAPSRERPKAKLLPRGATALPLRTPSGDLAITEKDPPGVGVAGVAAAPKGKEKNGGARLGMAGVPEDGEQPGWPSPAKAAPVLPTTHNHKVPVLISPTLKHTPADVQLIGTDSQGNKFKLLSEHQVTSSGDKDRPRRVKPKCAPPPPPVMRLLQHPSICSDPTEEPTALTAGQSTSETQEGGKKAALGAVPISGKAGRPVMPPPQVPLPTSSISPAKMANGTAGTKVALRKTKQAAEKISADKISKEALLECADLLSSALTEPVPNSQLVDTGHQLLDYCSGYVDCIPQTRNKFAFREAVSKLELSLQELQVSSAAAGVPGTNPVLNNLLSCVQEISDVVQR

Compound: C#Cc1cccc(Nc2ncnc3cc4c(cc23)OCCOCCOCCO4)c1.Cl [4-[(3-ethynyl-phenyl)amino]-6,7-benzo-12-crown-quinazoline hydrochloride]
- activity against tumor cells (in words) [1]: low activity
- IC50 ([1]; Homo sapiens, 96 hr, MTT): 40.7 µM
- IC50 [2]: 1 µM
- activity against tumor cells (in words) ([3]; HCT8): low activity
- IC50 ([3]; Homo sapiens, HCT-8, HCT8, 96 hr, MTT): > 200 µM
- IC50 ([4]; H460, 96 hr, listed as lcotinib hydrochloride Crystalline Form I, hydrochloride): 16.1 µM
- IC50 ([4]; Homo sapiens, NCI-H460, 96 h): 16 µM
- IC50 ([5]; BGC-823, 96 hr, listed as lcotinib hydrochloride Crystalline Form I, hydrochloride): 4.06 µM
- IC50 ([5]; Homo sapiens, BGC-823, 96 h): 4 µM
- activity against tumor cells (in words) ([6]; BEL-7402): low activity
- IC50 ([6]; Homo sapiens, BEL-7402, 96 hr, MTT): > 200 µM
- IC50 ([7]; A549, 96 hr, listed as lcotinib hydrochloride Crystalline Form I, hydrochloride): 12.2 µM
- IC50 ([7]; Homo sapiens, A549, 96 h): 12 µM
- induction effect on P450 enzymes (P450 enzymes): No significant induction effect
- inhibitory activity on drug metabolism enzymes (drug metabolism enzymes): no inhibitory activity
- H460 tumor inhibition rate ([8]; 30 mg/kg oral gavage once daily for 14 days): 37.5%
- H460 tumor inhibition rate ([8]; 60 mg/kg oral gavage once daily for 14 days): 49.3%
- H460 tumor inhibition rate ([8]; 120 mg/kg oral gavage once daily for 14 days): 52.0%
- inhibition of Arg kinase [9]: did not inhibit
- CR (complete remission), number of patients [10, 11]: 0
- DCR (disease control rate) [10, 11]: 85.70%
- ORR (objective response rate) [10, 11]: 0.00%
- PD (progression of disease), number of patients [10, 11]: 1
- PR (partial remission), number of patients [10, 11]: 0
- CR (complete remission), number of patients [10, 12]: 2
- DCR (disease control rate) [10, 12]: 62.96%
- ORR (objective response rate) [10, 12]: 25.93%
- PD (progression of disease), number of patients [10, 12]: 10
- PR (partial remission), number of patients [10, 12]: 5
- CR (complete remission), number of patients [10, 13]: 1
- DCR (disease control rate) [10, 13]: 69.57%
- ORR (objective response rate) [10, 13]: 30.43%
- PD (progression of disease), number of patients [10, 13]: 4
- PR (partial remission), number of patients [10, 13]: 6
- CR (complete remission), number of patients [10, 14]: 0
- DCR (disease control rate) [10, 14]: 91.70%
- ORR (objective response rate) [10, 14]: 37.50%
- PD (progression of disease), number of patients [10, 14]: 2
- PR (partial remission), number of patients [10, 14]: 9
- CR (complete remission), number of patients [10, 15]: 0
- DCR (disease control rate) [10, 15]: 55.56%
- ORR (objective response rate) [10, 15]: 0.00%
- PD (progression of disease), number of patients [10, 15]: 3
- PR (partial remission), number of patients [10, 15]: 0
- CR (complete remission), number of patients [10, 16]: 0
- DCR (disease control rate) [10, 16]: 90.10%
- ORR (objective response rate) [10, 16]: 45.45%
- PD (progression of disease), number of patients [10, 16]: 1
- PR (partial remission), number of patients [10, 16]: 5
- CR (complete remission), number of patients [10, 17]: 0
- DCR (disease control rate) [10, 17]: 66.67%
- ORR (objective response rate) [10, 17]: 0.00%
- PD (progression of disease), number of patients [10, 17]: 1
- treatment of non-small cell lung cancer (in words) ([10]; advanced NSCLC patients, oral tablets): effective
